From patent US20230203003A1, “Notch Inhibitors and Uses Thereof” (StemSynergy Therapeutics, Inc., priority 2020, published 2023)
Structures can show the parent of a compound that is named as a salt. Where two headings read alike, the source gives them in different places.

Columns and labels:
Assay type in all cases: cell-based
[1] = system: Notch1; assay: Notch1 Reporter Assay
[2] = system: OE33 Esophageal Adenocarcinoma cell line; assay: OE33 Colony Formation Assay; conditions: Homo sapiens, OE33, 168 h, OE33 cells, 200 cells/well, 7 days, CellTiter-Glo
Method: OE33 Colony Formation Assay
The OE33 Esophageal Adenocarcinoma cell line was cultured and plated into 96-well tissue culture plates under sparse conditions (200 cells/well). Test compounds were serially diluted in DMSO and then into culture media (final DMSO concentration = 0.1%). Compound/media was then added to cells every 48 hours for a total of 7 days. Clonogenic growth was assessed using the CellTiter-Glo reagent, according to manufacturer (Promega) specifications. Percent inhibition was calculated as the percent of luminescence normalized to control (0.1% DMSO) wells. Nonlinear regression curve fitting was performed using GraphPad Prism software to determine EC50′s.

[3] = biological target: T1, hNotch1ICD (Homo sapiens, UniProt P46531); assay: Notch1 Reporter Assay (Dox-inducible Notch1-ICD, CSL-responsive luciferase in 293A cells); conditions: 293A cells, 24 h, luciferase normalized to cell viability; read-out: Notch1 Reporter Assay IC50
T1 construct: pLV[Tet]-Puro-TRE3G>Notch1-ICD; expressed in transfected cells; host or cells: 293A cells
T1 sequence (P46531 1754-2555 limits assumed): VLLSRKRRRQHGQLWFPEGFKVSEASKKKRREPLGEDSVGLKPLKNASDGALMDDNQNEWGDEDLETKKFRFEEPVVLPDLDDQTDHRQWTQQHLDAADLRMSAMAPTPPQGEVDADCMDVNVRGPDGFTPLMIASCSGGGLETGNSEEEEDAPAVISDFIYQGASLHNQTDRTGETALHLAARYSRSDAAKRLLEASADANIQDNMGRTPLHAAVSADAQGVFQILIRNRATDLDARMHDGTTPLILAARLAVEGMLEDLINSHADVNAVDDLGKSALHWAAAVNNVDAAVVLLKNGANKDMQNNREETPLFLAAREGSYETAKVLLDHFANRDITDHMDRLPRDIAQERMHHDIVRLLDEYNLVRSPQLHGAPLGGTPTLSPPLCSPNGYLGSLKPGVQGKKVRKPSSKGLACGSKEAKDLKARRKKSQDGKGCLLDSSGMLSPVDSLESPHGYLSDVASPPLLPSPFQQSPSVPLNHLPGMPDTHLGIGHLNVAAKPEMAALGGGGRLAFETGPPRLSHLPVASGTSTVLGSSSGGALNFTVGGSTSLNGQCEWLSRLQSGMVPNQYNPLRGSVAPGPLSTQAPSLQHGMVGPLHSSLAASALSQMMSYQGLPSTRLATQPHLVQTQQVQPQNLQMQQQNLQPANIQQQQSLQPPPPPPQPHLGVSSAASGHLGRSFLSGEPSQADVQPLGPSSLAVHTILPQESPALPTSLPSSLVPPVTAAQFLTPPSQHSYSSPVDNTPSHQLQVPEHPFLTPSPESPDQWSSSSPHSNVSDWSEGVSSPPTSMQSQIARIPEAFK
Method: 293A cells expressing 1) pCMV-Tet-On 3G, 2) pLV[Tet]-Puro-TRE3G>Notch1-ICD, 3) pLV[Tet]-Puro-TRE3G>Notch2-ICD, 4) pLV[Tet]-Puro-TRE3G>Notch3-ICD, and 5) pCSL-RElement-Luc were used. When Doxycycline is added, the Tet-ON gene activates expression of hNotch1ICD, which together with endogenous NTC components binds to CSL responsive elements (pCSL-RElement-Luc) and expresses luciferase. 1 ×× 10^4 cells are plated in 100 µL (96-well format). 24 h later, compounds (10 mM stock in DMSO) are diluted in DMSO to 200X, then added (5 ul into 1 mL) to cell culture media containing 50 ng/mL Dox. This is then added 1:1 to cells. Final DMSO = 0.25%, Dox = 25 ng/mL. After 24 h, media is discarded, and cells are lysed in passive lysis buffer (Promega). Cells are rocked at room temperature for 15 min and then lysate is divided for luciferase assay (Luciferase Assay System, Promega) and cell viability (CellTiter Glo 2.0, Promega). Raw luciferase is normalized to cell viability, and then scaled to DMSO wells. Results are analyzed and IC50′s are determined in GraphPad by nonlinear regression curve fitting (4 parameter) of dose response curves.

Compound | IC50 ([1]; Formate Salt) | IC50 [1] | EC50 [2] | IC50 [3]
CC(C)Cn1c(=O)c(C(=O)Nc2cccc(N3CCN(C)CC3)c2)c(O)c2ccccc21 [SSTN-560 Formate Salt, 4-Hydroxy-1-Isobutyl-N-(3-(4-Methylpiperazin-1-Yl)Phenyl)-2-Oxo-1,2-Dihydroquinoline-3-Carboxamide Formate Salt] | 10.2 µM | – | – | –
CC(C)Cn1c(=O)c(C(=O)Nc2cccc(N3CCN(C)CC3)c2)c(O)c2ccccc21 [SSTN-560, 4-hydroxy-1-isobutyl-N-(3-(4-methylpiperazin-1-yl)phenyl)-2-oxo-1,2-dihydroquinoline-3-carboxamide] | – | 14.2 µM | – | –
CC(C)Cn1c(=O)c(C(=O)Nc2cccc(N3CCN(C)CC3)c2)c(O)c2ccccc21 [SSTN-560_HCI salt, 4-hydroxy-1-isobutyl-N-(3-(4-methylpiperazin-1-yl)phenyl)-2-oxo-1,2-dihydroquinoline-3-carboxamide] | – | 7.7 µM | – | –
CC(C)Cn1c(=O)c(C(=O)Nc2cccc(N3CCNCC3)c2)c(O)c2ccccc21 [compound 552, 4-hydroxy-1-isobutyl-2-oxo-N-(3-(piperazin-1-yl)phenyl)-1,2-dihydroquinoline-3-carboxamide trifluoro aceticacid] | – | – | 0.9 µM | 4.3 µM
CC(C)Cn1c(=O)c(C(=O)Nc2cccc(N(C)C3CC3)c2)c(O)c2ccccc21 [compound 561, N-(3-(cyclopropyl(methyl)amino)phenyl)-4-hydroxy-1-isobutyl-2-oxo-1,2-dihydroquinoline-3-carboxamide] | – | – | 3.9 µM | 19.1 µM
CC(C)Cn1c(=O)c(C(=O)Nc2cccc(N(C)CC3CC3)c2)c(O)c2ccccc21 [compound 562, N-(3-((cyclopropylmethyl)(methyl)amino)phenyl)-4-hydroxy-1-isobutyl-2-oxo-1,2-dihydroquinoline-3-carboxamide] | – | – | 7.7 µM | 15 µM
